Test results from patent US12479820B2, “Pyridin-3-yl derivatives” (Idorsia Pharmaceuticals Ltd, priority 2019, dated 2025).

What follows are compounds tested against T1, human LPA1 receptor (Homo sapiens, UniProt Q92633) (assay: Beta-arrestin recruitment assay to determine IC50 values for human LPAR1). Conditions: Tango EDG2-bla U2OS cells, antagonist assay, LPA 18:1 500 nM final.
T1 construct: TEV protease site; Gal4-VP16 transcription factor; host or cells: Tango EDG2-bla U2OS cells
Type: cell-based
Text: Beta-Arrestin Recruitment Assay to Determine IC50 Values for Human LPAR1
The Tango™ EDG2-bla U2OS cells are obtained from Invitrogen. These cells contain the human LPA1 receptor cDNA linked to a TEV protease site and a Gal4-VP16 transcription factor integrated into the Tango™ GPCR-bla U2OS parental cell line. This parental cell line stably expresses a beta-arrestin/TEV protease fusion protein and the beta-lactamase (bla) reporter gene under the control of a UAS response element. Upon LPA (agonist) binding, LPA1 receptor gets activated, leading to arrestin-protease recruitment and proteolytic release of the transcription factor: The transcription factor then regulates transcription of a beta-lactamase reporter construct, which is measured upon addition of the live-cell substrate.
10′000 Tango™ EDG2-bla U2OS cells are seeded in a 384-well black with clear bottom plate in 30 μl Freestyle 293 Expression Medium (Invitrogen) and incubated for 20 h at 37° C., 5% CO2. For antagonist assays, 5 μl of test compound (dilution series in DMSO/Freestyle 293 Expression medium/0.1% fatty acid free BSA (Sigma)) or buffer control are added per well and incubated for 30 min at 37° C., 5% CO2. 5 μl of LPA 18:1 (500 nM final) (solution in Freestyle 293 Expression medium/0.1% fatty acid free BSA (Sigma)) are added per well and the plate incubated for 16 h at 37° C., 5% CO2. Cells are then loaded with LiveBLAzer-FRET™ B/G Substrate (Invitrogen) for 2 h in the dark and the fluorescence emission at 460 nm and 530 nm is measured using the SynergyMx reader (BioTek). Following the background subtraction from both channels, the 460/530 nm emission ratio for each well is calculated, then plotted and fitted to a 4-parameter logistic function to obtain IC50 values. IC50 is the concentration of antagonist inhibiting 50% of the maximal response.

T1 sequence (Q92633 whole entry, the tested form may be a part): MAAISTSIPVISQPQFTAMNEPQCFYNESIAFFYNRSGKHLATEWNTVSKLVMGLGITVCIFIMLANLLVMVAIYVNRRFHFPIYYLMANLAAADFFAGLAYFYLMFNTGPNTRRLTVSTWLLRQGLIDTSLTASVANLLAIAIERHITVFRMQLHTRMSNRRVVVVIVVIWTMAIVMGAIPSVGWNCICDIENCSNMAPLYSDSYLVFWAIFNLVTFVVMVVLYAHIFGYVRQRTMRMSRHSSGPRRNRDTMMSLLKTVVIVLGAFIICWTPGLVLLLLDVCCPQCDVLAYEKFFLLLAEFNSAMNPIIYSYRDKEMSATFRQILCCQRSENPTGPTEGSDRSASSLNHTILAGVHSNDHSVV

SMILES | IC50 [nM]
COc1cc(Cl)ncc1NC(=O)C1(c2ccccc2C(C)C)CN(CCc2nnn[nH]2)C1 [Example 18-4, 1-(2-(1H-tetrazol-5-yl)ethyl)-N-(6-chloro-4-methoxypyridin-3-yl)-3-(2-isopropylphenyl)azetidine-3-carboxamide] | 143
COc1cc(Cl)ncc1NC(=O)C1(c2ccccc2C(C)C)CN(CCCc2nnn[nH]2)C1 [Example 18-5, 1-(3-(1H-tetrazol-5-yl)propyl)-N-(6-chloro-4-methoxypyridin-3-yl)-3-(2-isopropylphenyl)azetidine-3-carboxamide] | 347
COc1cc(Cl)ncc1NC(=O)C1(c2ccccc2C(C)C)CN(CC(=O)O)C1 [Example 18-6, 2-(3-((6-chloro-4-methoxypyridin-3-yl)carbamoyl)-3-(2-isopropylphenyl)azetidin-1-yl)acetic acid] | 128
COc1cc(Cl)ncc1NC(=O)C1(c2ccccc2C(C)C)CN(CC2(F)CC2)C1 [Example 18-10, N-(6-chloro-4-methoxypyridin-3-yl)-1-((1-fluorocyclopropyl)methyl)-3-(2-isopropylphenyl)azetidine-3-carboxamide] | 76
COc1cc(Cl)ncc1NC(=O)C1(c2ccccc2C(C)C)CN(C[C@@H]2COC(C)(C)O2)C1 [Example 18-11, (R)-N-(6-chloro-4-methoxypyridin-3-yl)-1-((2,2-dimethyl-1,3-dioxolan-4-yl)methyl)-3-(2-isopropylphenyl)azetidine-3-carboxamide] | 136
COc1cc(Cl)ncc1NC(=O)C1(c2ccccc2C(C)C)CN(Cc2cc[nH]n2)C1 [Example 18-13, 1-((1H-pyrazol-3-yl)methyl)-N-(6-chloro-4-methoxypyridin-3-yl)-3-(2-isopropylphenyl)azetidine-3-carboxamide] | 129
COc1cc(Cl)ncc1NC(=O)C1(c2ccccc2C(C)C)CN(Cc2cn[nH]c2)C1 [Example 18-14, 1-((1H-pyrazol-4-yl)methyl)-N-(6-chloro-4-methoxypyridin-3-yl)-3-(2-isopropylphenyl)azetidine-3-carboxamide] | 74
COC(=O)C(C)(C)CCN1CC(C(=O)Nc2cnc(Cl)cc2OC)(c2ccccc2C(C)C)C1 [Example 18-16, methyl 4-(3-((6-chloro-4-methoxypyridin-3-yl)carbamoyl)-3-(2-isopropylphenyl)azetidin-1-yl)-2,2-dimethylbutanoate] | 111
CCOc1cc(Cl)ncc1NC(=O)C1(c2ccccc2C(C)C)CN(CCC(C)(C)C(=O)OC)C1 [Example 18-18, methyl 4-(3-((6-chloro-4-ethoxypyridin-3-yl)carbamoyl)-3-(2-isopropylphenyl)azetidin-1-yl)-2,2-dimethylbutanoate] | 142
COc1cc(Cl)ncc1NC(=O)C1(c2ccccc2C(C)C)CCN(CCC(C)(C)C(=O)O)CC1 [Example 18-22, 4-(4-((6-chloro-4-methoxypyridin-3-yl)carbamoyl)-4-(2-isopropylphenyl)piperidin-1-yl)-2,2-dimethylbutanoic acid] | 79
CCOC(=O)C(C)(C)CCCN1CC(C(=O)Nc2cnc(Cl)cc2OC)(c2ccccc2C(C)C)C1 [Example 18-24, ethyl 5-(3-((6-chloro-4-methoxypyridin-3-yl)carbamoyl)-3-(2-isopropylphenyl)azetidin-1-yl)-2,2-dimethylpentanoate] | 156
CCOC(=O)C(C)(C)CCCN1CC(C(=O)Nc2cnc(Cl)cc2OCC)(c2ccccc2C(C)C)C1 [Example 18-26, ethyl 5-(3-((6-chloro-4-ethoxypyridin-3-yl)carbamoyl)-3-(2-isopropylphenyl)azetidin-1-yl)-2,2-dimethylpentanoate] | 72
COc1cc(Cl)ncc1NC(=O)C1(c2ccccc2C(C)C)CN(C(=O)CCO)C1 [Example 19-1, N-(6-chloro-4-methoxypyridin-3-yl)-1-(3-hydroxypropanoyl)-3-(2-isopropylphenyl)azetidine-3-carboxamide] | 127

The next compounds have a lower IC50 than those just listed; values first:

IC50 [nM] | SMILES
61 | COc1cc(Cl)ncc1NC(=O)C1(c2ccccc2C(C)C)CN(Cc2c[nH]nn2)C1 [Example 18-15, 1-((1H-1,2,3-triazol-4-yl)methyl)-N-(6-chloro-4-methoxypyridin-3-yl)-3-(2-isopropylphenyl)azetidine-3-carboxamide]
56 | COc1cc(Br)ncc1NC(=O)C1(c2ccccc2C(C)C)CN(CCC(C)(C)C(=O)O)C1 [Example 18-23, 4-(3-((6-bromo-4-methoxypyridin-3-yl)carbamoyl)-3-(2-isopropylphenyl)azetidin-1-yl)-2,2-dimethylbutanoic acid]
47 | COc1cc(Cl)ncc1NC(=O)C1(c2ccccc2C(C)C)CN(CCCC(C)(C)C(=O)O)C1 [Example 18-25, 5-(3-((6-chloro-4-methoxypyridin-3-yl)carbamoyl)-3-(2-isopropylphenyl)azetidin-1-yl)-2,2-dimethylpentanoic acid]
44 | COc1cc(Cl)ncc1NC(=O)C1(c2ccccc2C(C)C)CN(CCN)C1 [Example 18-7, 1-(2-aminoethyl)-N-(6-chloro-4-methoxypyridin-3-yl)-3-(2-isopropylphenyl)azetidine-3-carboxamide]
37 | COc1cc(Cl)ncc1NC(=O)C1(c2ccccc2C(C)C)CN(CCO)C1 [Example 18-3, N-(6-chloro-4-methoxypyridin-3-yl)-1-(2-hydroxyethyl)-3-(2-isopropylphenyl)azetidine-3-carboxamide]
35 | COc1cc(Cl)ncc1NC(=O)C1(c2ccccc2C(C)C)CN(CC(C)C)C1 [Example 18-2, N-(6-chloro-4-methoxypyridin-3-yl)-1-isobutyl-3-(2-isopropylphenyl)azetidine-3-carboxamide]
28 | COc1cc(Cl)ncc1NC(=O)C1(c2ccccc2C(C)C)CN(C[C@@H](O)CO)C1 [Example 18-12, (R)-N-(6-chloro-4-methoxypyridin-3-yl)-1-(2,3-dihydroxypropyl)-3-(2-isopropylphenyl)azetidine-3-carboxamide]
27 | COc1cc(Cl)ncc1NC(=O)C1(c2ccccc2C(C)C)CN(CCC(C)(C)C(=O)O)C1 [Example 18-17, 4-(3-((6-chloro-4-methoxypyridin-3-yl)carbamoyl)-3-(2-isopropylphenyl)azetidin-1-yl)-2,2-dimethylbutanoic acid]
22 | COc1cc(Cl)ncc1NC(=O)C1(c2ccccc2C(C)C)CN(C2COC2)C1 [Example 18-9, N-(6-chloro-4-methoxypyridin-3-yl)-3-(2-isopropylphenyl)-1-(oxetan-3-yl)azetidine-3-carboxamide]
21 | CCOc1cc(Cl)ncc1NC(=O)C1(c2ccccc2C(C)C)CN(CCC(C)(C)C(=O)O)C1 [Example 18-19, 4-(3-((6-chloro-4-ethoxypyridin-3-yl)carbamoyl)-3-(2-isopropylphenyl)azetidin-1-yl)-2,2-dimethylbutanoic acid]
21 | CCOc1cc(Cl)ncc1NC(=O)C1(c2ccccc2C(C)C)CN(CCCC(C)(C)C(=O)O)C1 [Example 18-27, 5-(3-((6-chloro-4-ethoxypyridin-3-yl)carbamoyl)-3-(2-isopropylphenyl)azetidin-1-yl)-2,2-dimethylpentanoic acid]
19 | COC(=O)C(C)(C)CCN1CCC(C(=O)Nc2cnc(Cl)cc2OC)(c2ccccc2C(C)C)CC1 [Example 18-21, methyl 4-(4-((6-chloro-4-methoxypyridin-3-yl)carbamoyl)-4-(2-isopropylphenyl)piperidin-1-yl)-2,2-dimethylbutanoate]
17 | COc1cc(Cl)ncc1NC(=O)C1(c2ccccc2C(C)C)CN(CCNS(N)(=O)=O)C1 [Example 18-28, N-(6-chloro-4-methoxypyridin-3-yl)-3-(2-isopropylphenyl)-1-(2-(sulfamoylamino)ethyl)azetidine-3-carboxamide]
16 | CC(C)Oc1cc(Cl)ncc1NC(=O)C1(c2ccccc2C(C)C)CN(CCC(C)(C)C(=O)O)C1 [Example 18-20, 4-(3-((6-chloro-4-isopropoxypyridin-3-yl)carbamoyl)-3-(2-isopropylphenyl)azetidin-1-yl)-2,2-dimethylbutanoic acid]
9 | COc1cc(Cl)ncc1NC(=O)C1(c2ccccc2C(C)C)CN(C(C)C)C1 [Example 18-1, N-(6-chloro-4-methoxypyridin-3-yl)-1-isopropyl-3-(2-isopropylphenyl)azetidine-3-carboxamide]
3 | COc1cc(Cl)ncc1NC(=O)C1(c2ccccc2C2CCCC2)CNC1 [Example 17, N-(6-chloro-4-methoxypyridin-3-yl)-3-(2-cyclopentylphenyl)azetidine-3-carboxamide]
3 | COc1cc(Cl)ncc1NC(=O)C1(c2ccccc2C(C)C)CN(C2CCC2)C1 [Example 18-8, N-(6-chloro-4-methoxypyridin-3-yl)-1-cyclobutyl-3-(2-isopropylphenyl)azetidine-3-carboxamide]
